System: cytokines in the blood
Assay: Plasma cytokines after intravenous infusion of TLR-7 agonists in cynomolgus monkeys
Assay type: in vivo, cynomolgus monkey
Conditions: thirty minute i.v. infusion
Text: The objective of the following study was to observe the effect of the in vivo administration of different amounts of small molecule agonists of TLR-7, N-(4-(4-amino-2-(2-methoxyethyl)-1H-imidazo[4,5-c]quinolin-1-yl)butyl)-N-(tetrahydro-2H-pyran-4-yl)acetamide (SM1) and N-(4-(4-amino-2-ethyl-1H-imidazo[4,5-c]quinolin-1-yl)butyl)-N-(1,1-dioxidothietan-3-yl)acetamide (SM3), on expression of various cytokines in the blood in a cynomolgus monkey model. The various cytokines whose expression was determined include interferon alpha, interleukin 1 receptor antagonist, interleukins 4, 6, 8, 10, 12, 15, 18, monocyte chemoattractant protein 1, granulocyte-colony stimulating factor, macrophage inflammatory protein 1 beta, tumor necrosis factor alpha, and vascular endothelial growth factor.
A defined single dose of one of the agonist compounds was administered intravenously to cynomolgus monkeys in a thirty minute infusion. […]
Cytokines levels were determined using an interferon alpha Elisa kit (e.g., VeriKine™ Cynomolgus/Rhesus IFNα ELISA Kit) and a Luminex® non-human primate cytokine/chemokine kit (e.g., Milliplex Non-Human Primate Cytokine/Chemokine Magnetic Premixed 23 Plex Panel), in accordance to the manufacturers' instructions. […]

Structure (SMILES)	cytokine levels in plasma (FIGS. 10a-10kk) (male and female cynomolgus monkeys, 30, 100 or 300 μg/kg, then at 14 days 1, 3 or 10 mg/kg)	cytokine levels in plasma (FIGS. 11a-11m) (male cynomolgus monkeys, 300 μg/kg, 1, 3 and 10 mg/kg)
COCCc1nc2c(N)nc3ccccc3c2n1CCCCN(C(C)=O)C1CCOCC1 [SM1, N-(4-(4-amino-2-(2-methoxyethyl)-1H-imidazo[4,5-c]quinolin-1-yl)butyl)-N-(tetrahydro-2H-pyran-4-yl)acetamide]	production of various cytokines in a highly individual manner	
CCc1nc2c(N)nc3ccccc3c2n1CCCCN(C(C)=O)C1CS(=O)(=O)C1 [SM3, N-(4-(4-amino-2-ethyl-1H-imidazo[4,5-c]quinolin-1-yl)butyl)-N-(1,1-dioxidothietan-3-yl)acetamide]		production of various cytokines in a highly individual manner

From US20200191798A1, “DOSE DETERMINATION FOR IMMUNOTHERAPEUTIC AGENTS” (BIONTECH RNA PHARMACEUTICALS GMBH, priority 2016, published 2020)
